Literature values as cited in patent US20200178572A1 (priority 2017, published 2020).

Settings: in vivo

CC1=CC[C@H]2C[C@@H]1C2(C)C [α-Pinene, (1S,5S)-2,6,6-Trimethylbicyclo[3.1.1]hept-2-ene]
human pulmonary uptake: 60%
